According to ChEMBL document CHEMBL1131487, “Acetamidine lysine derivative, N-(5(S)-amino-6,7-dihydroxyheptyl)ethanimidamide dihydrochloride: a highly selective inhibitor of human inducible nitric oxide synthase” (J Med Chem, 1998):

Assays:
Nitric oxide synthase 3 = molecular target: T1, Nitric oxide synthase 3 (Homo sapiens, UniProt P29474); assay: Compound was evaluated for the Inhibition of endothelial isoform of Endothelial nitric oxide synthase (eNOS)enzyme
T1 sequence (P29474 whole entry): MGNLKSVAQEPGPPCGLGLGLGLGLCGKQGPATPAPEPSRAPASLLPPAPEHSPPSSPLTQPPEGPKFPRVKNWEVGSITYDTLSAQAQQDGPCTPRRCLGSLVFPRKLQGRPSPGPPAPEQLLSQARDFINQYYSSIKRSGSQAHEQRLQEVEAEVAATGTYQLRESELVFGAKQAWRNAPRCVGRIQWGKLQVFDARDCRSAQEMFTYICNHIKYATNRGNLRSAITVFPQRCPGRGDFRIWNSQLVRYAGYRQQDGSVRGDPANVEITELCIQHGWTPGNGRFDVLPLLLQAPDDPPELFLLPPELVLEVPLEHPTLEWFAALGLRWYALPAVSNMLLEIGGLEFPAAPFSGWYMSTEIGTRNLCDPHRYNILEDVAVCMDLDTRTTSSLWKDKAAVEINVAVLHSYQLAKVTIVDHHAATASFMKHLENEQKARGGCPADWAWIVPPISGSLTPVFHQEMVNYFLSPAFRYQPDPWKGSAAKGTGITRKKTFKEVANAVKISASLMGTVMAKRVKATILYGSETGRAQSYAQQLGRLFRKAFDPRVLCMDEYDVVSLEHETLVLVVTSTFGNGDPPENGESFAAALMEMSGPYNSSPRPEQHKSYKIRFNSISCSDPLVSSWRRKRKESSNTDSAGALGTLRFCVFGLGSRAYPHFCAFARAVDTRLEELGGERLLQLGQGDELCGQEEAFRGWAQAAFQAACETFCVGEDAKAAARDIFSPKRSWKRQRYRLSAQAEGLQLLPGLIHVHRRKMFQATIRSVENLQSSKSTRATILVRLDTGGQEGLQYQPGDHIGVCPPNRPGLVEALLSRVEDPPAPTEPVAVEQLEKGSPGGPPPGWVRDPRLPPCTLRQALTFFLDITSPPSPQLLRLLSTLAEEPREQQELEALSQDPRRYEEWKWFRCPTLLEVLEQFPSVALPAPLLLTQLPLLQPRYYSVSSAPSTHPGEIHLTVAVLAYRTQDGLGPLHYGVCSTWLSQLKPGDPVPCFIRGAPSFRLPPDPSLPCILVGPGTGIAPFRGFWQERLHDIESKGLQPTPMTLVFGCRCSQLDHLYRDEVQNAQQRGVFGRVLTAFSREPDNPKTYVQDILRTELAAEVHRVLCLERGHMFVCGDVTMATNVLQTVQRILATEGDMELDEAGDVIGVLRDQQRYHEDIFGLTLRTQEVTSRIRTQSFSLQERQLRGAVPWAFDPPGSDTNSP

[1] = molecular target: T2, Nitric oxide synthase, inducible (Homo sapiens, UniProt P35228); assay: Compound was evaluated for the Inhibition of induced isoform of Inducible nitric oxide synthase
T2 sequence (P35228 whole entry, canonical isoform): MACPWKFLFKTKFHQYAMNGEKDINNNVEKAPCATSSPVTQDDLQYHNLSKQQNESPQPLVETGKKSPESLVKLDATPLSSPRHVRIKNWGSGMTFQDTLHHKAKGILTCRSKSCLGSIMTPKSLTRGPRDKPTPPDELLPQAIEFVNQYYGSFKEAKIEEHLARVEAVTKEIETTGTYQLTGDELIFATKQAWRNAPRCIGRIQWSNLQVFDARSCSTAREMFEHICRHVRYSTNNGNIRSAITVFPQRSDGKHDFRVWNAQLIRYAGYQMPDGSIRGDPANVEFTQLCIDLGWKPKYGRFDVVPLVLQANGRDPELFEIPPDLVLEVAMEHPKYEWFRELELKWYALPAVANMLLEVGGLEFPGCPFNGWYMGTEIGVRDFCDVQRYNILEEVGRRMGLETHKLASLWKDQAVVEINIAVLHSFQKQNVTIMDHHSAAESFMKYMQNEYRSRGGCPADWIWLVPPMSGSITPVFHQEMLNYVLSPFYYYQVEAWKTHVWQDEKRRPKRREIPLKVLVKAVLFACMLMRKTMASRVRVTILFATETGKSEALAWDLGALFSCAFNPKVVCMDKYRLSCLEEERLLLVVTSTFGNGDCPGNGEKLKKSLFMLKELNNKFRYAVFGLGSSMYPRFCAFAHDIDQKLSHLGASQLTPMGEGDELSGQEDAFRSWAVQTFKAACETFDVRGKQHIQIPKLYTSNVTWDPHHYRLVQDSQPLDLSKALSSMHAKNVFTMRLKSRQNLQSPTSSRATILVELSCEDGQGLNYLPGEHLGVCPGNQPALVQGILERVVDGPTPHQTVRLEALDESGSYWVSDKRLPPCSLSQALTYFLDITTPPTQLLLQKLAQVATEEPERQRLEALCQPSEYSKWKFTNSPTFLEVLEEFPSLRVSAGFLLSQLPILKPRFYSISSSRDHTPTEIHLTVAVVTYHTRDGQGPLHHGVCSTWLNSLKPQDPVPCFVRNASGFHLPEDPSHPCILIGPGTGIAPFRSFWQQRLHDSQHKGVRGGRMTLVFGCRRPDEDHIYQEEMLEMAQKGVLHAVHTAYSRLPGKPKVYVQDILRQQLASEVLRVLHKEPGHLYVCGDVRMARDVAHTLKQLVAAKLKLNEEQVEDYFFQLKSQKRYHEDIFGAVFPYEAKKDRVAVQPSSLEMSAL

Nitric oxide synthase 1 [2] = molecular target: T3, Nitric oxide synthase 1 (Homo sapiens, UniProt P29475); assay: Compound was evaluated for the Inhibition of Neuronal nitric oxide synthase
T3 sequence (P29475 whole entry): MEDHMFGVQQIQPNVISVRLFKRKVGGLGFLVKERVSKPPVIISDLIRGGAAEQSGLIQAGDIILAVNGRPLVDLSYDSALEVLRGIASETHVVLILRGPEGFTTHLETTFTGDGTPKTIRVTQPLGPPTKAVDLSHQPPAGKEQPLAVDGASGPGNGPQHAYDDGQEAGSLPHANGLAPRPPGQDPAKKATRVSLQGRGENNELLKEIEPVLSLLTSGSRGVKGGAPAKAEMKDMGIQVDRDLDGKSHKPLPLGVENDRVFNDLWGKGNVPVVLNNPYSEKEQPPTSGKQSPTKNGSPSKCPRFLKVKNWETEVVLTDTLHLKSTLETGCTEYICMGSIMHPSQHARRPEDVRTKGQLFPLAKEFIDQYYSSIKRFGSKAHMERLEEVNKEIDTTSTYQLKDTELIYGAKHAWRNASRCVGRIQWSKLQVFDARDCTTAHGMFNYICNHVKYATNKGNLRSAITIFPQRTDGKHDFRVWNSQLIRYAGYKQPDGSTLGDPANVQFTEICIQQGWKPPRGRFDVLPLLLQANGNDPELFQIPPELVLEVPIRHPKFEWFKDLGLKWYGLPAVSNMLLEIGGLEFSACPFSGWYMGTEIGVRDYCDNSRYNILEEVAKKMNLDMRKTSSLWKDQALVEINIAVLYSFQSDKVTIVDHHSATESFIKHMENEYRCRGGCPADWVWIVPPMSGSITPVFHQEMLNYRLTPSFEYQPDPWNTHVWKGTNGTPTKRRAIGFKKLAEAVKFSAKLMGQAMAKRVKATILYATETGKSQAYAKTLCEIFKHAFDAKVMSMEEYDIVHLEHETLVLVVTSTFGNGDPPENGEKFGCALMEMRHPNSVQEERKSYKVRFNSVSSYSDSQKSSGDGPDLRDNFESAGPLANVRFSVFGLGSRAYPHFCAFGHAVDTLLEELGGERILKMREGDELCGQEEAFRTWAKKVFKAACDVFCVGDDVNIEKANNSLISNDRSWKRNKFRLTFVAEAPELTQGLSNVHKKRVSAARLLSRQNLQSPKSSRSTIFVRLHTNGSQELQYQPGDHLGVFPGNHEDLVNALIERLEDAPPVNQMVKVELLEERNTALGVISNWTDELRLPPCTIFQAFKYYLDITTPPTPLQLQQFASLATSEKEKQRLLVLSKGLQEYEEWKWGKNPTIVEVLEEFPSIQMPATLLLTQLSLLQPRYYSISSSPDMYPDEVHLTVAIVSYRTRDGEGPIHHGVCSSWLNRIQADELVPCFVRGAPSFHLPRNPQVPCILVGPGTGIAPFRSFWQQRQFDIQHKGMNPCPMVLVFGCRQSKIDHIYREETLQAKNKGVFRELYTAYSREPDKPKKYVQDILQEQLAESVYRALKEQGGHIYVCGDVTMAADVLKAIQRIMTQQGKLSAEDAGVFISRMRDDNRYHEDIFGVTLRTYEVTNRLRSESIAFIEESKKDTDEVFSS

[3] = molecular target: Nitric oxide synthase (inducible and endothelial) (Homo sapiens) (UniProt P35228+P29474); assay: Selectivity index determined by the ratio of IC50 of eNOS to the iNOS; assay type: protein assay
Sequence of Nitric oxide synthase (inducible and endothelial) (Homo sapiens) (P35228 whole entry, looked up, one chain of several): as the sequence (P35228 whole entry, canonical isoform) above

[4] = molecular target: Nitric oxide sythases; iNOS & nNOS (Homo sapiens) (UniProt P29475+P35228); assay: Selectivity index determined by the ratio of IC50 of nNOS to the iNOS; assay type: protein assay
Sequence of Nitric oxide sythases; iNOS & nNOS (Homo sapiens) (P29475 whole entry, looked up, canonical isoform): as the sequence (P29475 whole entry) above
Sequence of Nitric oxide sythases; iNOS & nNOS (Homo sapiens) (P35228 whole entry, looked up, canonical isoform): as the sequence (P35228 whole entry, canonical isoform) above

[5] = molecular target: T4, Nitric oxide synthase 3 (Homo sapiens) (UniProt P29474); assay: Compound was evaluated for the Inhibition of endothelial isoform of Endothelial nitric oxide synthase (eNOS)enzyme at 100 uM concentration
T4 sequence (whole entry): T1 sequence (P29474 whole entry)

[6] = molecular target: T2, Nitric oxide synthase, inducible; assay: Compound was evaluated for the Inhibition of induced isoform of Inducible nitric oxide synthase at 100 uM concentration
Nitric oxide synthase 1 [7] = molecular target: T3, Nitric oxide synthase 1; assay: Compound was evaluated for the Inhibition of Neuronal nitric oxide synthase at 100 uM concentration

| Compound | IC50 (Nitric oxide synthase 3) [mM] | IC50 [1] [µM] | IC50 (Nitric oxide synthase 1 [2]) [µM] | Selectivity index [3] | Selectivity index [4] | inhibition [5] [%] | inhibition [6] [%] | inhibition (Nitric oxide synthase 1 [7]) [%] |
| --- | --- | --- | --- | --- | --- | --- | --- | --- |
| CC(=N)NCCCC[C@H](N)[C@@H](O)CO | 8.42 | 12 | 150 | 700 | 12 |  |  |  |
| CC(=N)NCCCC[C@H](N)C(=O)O [L-NIL] | 0.138 | 5 |  | 30 | 12 |  |  |  |
| CC(=N)NCCCC[C@H](N)[C@H](O)CO |  |  |  |  |  | 0 | 49 | 13 |
